Like-named read-outs stand apart in the source and are kept apart here.
Legend:
[1] = test system: vaccinia virus WR; test: microbe, parasite or virus in culture; assay type: cell-based
[2] = test system: vaccinia virus WR; assay type: cell-based
[3] = test system: BS-C-1 cells; test: WST-1 cytotoxicity assay; conditions: for CC50: Table 4; for tox 20 h TC50 / tox 72 h TC50 / tox 120 h TC50: Table 6
[4] = test system: vaccinia virus WR; test: microbe, parasite or virus in culture; assay type: cell-based; remark: listed apart in the source
[5] = WST-1 cytotoxicity assay; conditions: African green monkey, BS-C-1 cells
[6] = molecular target: vaccinia virus DNA synthesis (viral DNA polymerase and its associated factors) (Vaccinia virus, UniProt P06856); assay type: biochemical
[7] = Solubility in cell growth medium by light scattering; conditions: concentrations of the activity assays
Procedure: These 16 compounds were tested for cell protection and cytotoxicity over longer times (48 h and 72 h). […] The solubility of the 16 compounds was verified in cell growth medium over the range of concentrations used in the activity assays.

[8] = test system: vaccinia virus; assay type: cell-based
[9] = Orthopoxvirus vaccinia, 20 h, read-out: Cell Protection 20 h EC50
[10] = read-out: Cytotoxicity 20 h CC50, 20 h
[11] = Orthopoxvirus vaccinia, BSC-1, 20 h, read-out: cell prot EC50
[12] = read-out: Cytotoxicity 72 h CC50, 72 h
[13] = read-out: Cytotoxicity 120 h CC50, 120 h
[14] = Orthopoxvirus vaccinia, 20 h, read-out: Plaque Reduction 20 h EC50
[15] = Orthopoxvirus vaccinia, BSC-1, 20 h, read-out: plaque red EC50
[16] = read-out: DNA Synthesis Inhibition IC50

| SMILES | EC50 [1, 9] | Effect of dsDNA [2] | CC50 [3, 10] | Selectivity Index SI [1] | EC50 [1, 11] | tox 20 h TC50 ([3]; 20 h) | tox 72 h TC50 ([3]; 72 h) | tox 120 h TC50 ([3]; 120 h) | CC50 [3, 13] | trapped by dsDNA [2] | EC50 [4, 14] | EC50 [4, 15] | IC50 [6, 16] | IC50 ([6]; read-out: DNA synth IC50) | selectivity index [1] | other results |
| --- | --- | --- | --- | --- | --- | --- | --- | --- | --- | --- | --- | --- | --- | --- | --- | --- |
| C[C@@]1(CO)[C@H](O)CC[C@@]2(C)[C@H]1CC[C@H]1C[C@@H]3C[C@@]12CC[C@]3(O)CO [Aphidicolin, reference compound] | 18 µM | No | – | – | – | – | – | – | – | – | – | – | – | – | – | – |
| Nc1ccn([C@@H]2O[C@H](CO)[C@@H](O)[C@@H]2O)c(=O)n1 [Ara-C, reference compound] | – | Yes | 16 µM | – | – | – | – | – | – | – | – | – | – | – | – | EC50 ([1]; read-out: Cell Protection 20 h EC50): 0.24 µM; EC50 ([4]; read-out: Plaque Reduction 20 h EC50): 0.5 µM |
| Nc1ccn(C[C@@H](CO)OCP(=O)(O)O)c(=O)n1 [Cidofovir, reference compound] | 132 µM | No | – | >18.9 | 132 µM | >500 µM | >500 µM | 300 µM | 300 µM | no | 50 µM | 50 µM | – | – | – | CC50 at 20 h [5]: > 2500 µM; CC50 [3, 12]: > 500 µM |
| COC(=O)c1cccc2c1-c1ccccc1/C2=N\O [Compound 1] | 9.6 µM | No | 127 µM | 13.2 | 9.6 µM | 127 µM | – | 20 µM | 20 µM | no | 10 µM | 10 µM | 108 µM | 108 µM | 13.2 | selectivity index over 72 h [1]: 3.2 |
| CCOC(=O)c1c(NC(=O)/C=C/C(=O)O)sc(C)c1-c1ccccc1 [Compound 2] | 30 µM | No | 159 µM | – | 30 µM | 159 µM | – | – | – | no | 25 µM | 25 µM | 374 µM | 374 µM | – | – |
| CCn1c2ccccc2c2ccc(/C=N/n3cnnc3)cc21 [Compound 3] | 50 µM | No | > 200 µM | >4.0 | 50 µM | >200 µM | 36 µM | 3 µM | 3 µM | no | 50 µM | 50 µM | 131 µM | 131 µM | >4.0 | CC50 [3, 12]: 36 µM |
| Cc1csc2c(N3CCN(C(=O)NC(C)(C)C)CC3)ncnc12 [Compound 4] | 50 µM | No | 157 µM | 3.1 | 50 µM | 157 µM | – | 40 µM | 40 µM | no | 15 µM | 15 µM | 12 µM | 12 µM | 3.1 | – |
| CCNc1nc(SCc2ccc(Cl)cc2)nc2sc3c(c12)CCN(C)C3 [Compound 5] | 45 µM | No | 115 µM | 2.6 | 42 µM | 155 µM | – | 5 µM | 5 µM | no | 15 µM | 15 µM | 129 µM | 129 µM | 2.6 | – |
| Cc1cc(/N=C/c2cc(Cl)cc(Cl)c2O)no1 [Compound 6] | 95 µM | No | > 200 µM | >2.1 | 95 µM | >200 µM | 50 µM | 20 µM | 20 µM | no | 75 µM | 75 µM | 30 µM | 30 µM | >2.1 | CC50 at 72 h [5]: ~50 µM |
| Cc1c(/N=C/c2cc(Br)cc(Br)c2Br)cccc1C(=O)O [Compound 7] | 100 µM | No | – | >2 | 100 µM | >200 µM | 38 µM | 20 µM | – | no | 75 µM | 75 µM | 26 µM | 26 µM | >2 | CC50 at 20 h [5]: > 200 µM; CC50 at 72 h [5]: 38 µM; CC50 at 120 h [5]: 20 µM |
| O=C(Nc1ccccc1C(=O)O)OCC1c2ccccc2-c2ccccc21 [Compound 9] | 104 µM | No | > 200 µM | >1.9 | 104 µM | >200 µM | 40 µM | 20 µM | 20 µM | no | 75 µM | 75 µM | 26 µM | 26 µM | >1.9 | CC50 at 72 h [5]: 30 to 50 µM |
| Cc1ccc2c(Sc3ccc(Cl)cc3)c(C(=O)O)[nH]c2c1 [Compound 11] | 130 µM | No | > 200 µM | >1.5 | 130 µM | >200 µM | 174 µM | 120 µM | 120 µM | no | 75 µM | 75 µM | 43 µM | 43 µM | >1.5 | CC50 [3, 12]: 174 µM |
| O=C(O)Cn1c2ccc(Cl)cc2c2nc3ccccc3nc21 [Compound 13] | 100 µM | No | > 100 µM | – | 100 µM | >100 µM | 13 µM | 30 µM | 30 µM | no | 50 µM | 50 µM | – | – | – | CC50 [3, 12]: 13 µM; Solubility in cell growth medium [7]: just slightly insoluble at the EC50 |
| N=C1/C(=C/c2coc3ccccc3c2=O)C(=O)N=C2SC=NN12 [Compound 14] | 188 µM | No | > 200 µM | >1 | 188 µM | >200 µM | >200 µM | 50 µM | 50 µM | no | 150 µM | 150 µM | 75 µM | 75 µM | >1 | CC50 [3, 12]: > 200 µM |
| CC(=O)n1c2ccccc2c2nc(C)sc21 [Compound 15] | 236 µM | No | > 200 µM | >1 | 236 µM | >200 µM | >200 µM | 75 µM | 75 µM | no | 100 µM | 100 µM | 111 µM | 111 µM | >1 | CC50 [3, 12]: > 200 µM |
| O=C1/C(=C/C2CCCO2)CC/C1=C\C1CCCO1 (stereo not shown) [Compound 16] | 100 µM | No | > 100 µM | >1 | 100 µM | >100 µM | >100 µM | 50 µM | – | no | 50 µM | 50 µM | 239 µM | 239 µM | >1 | Solubility in cell growth medium [7]: just slightly insoluble at the EC50 |
| CC[n+]1c(-c2ccccc2)c2cc(N)ccc2c2ccc(N)cc21 [Ethidium, reference compound] | 100 µM | Yes | – | – | – | – | – | – | – | – | – | – | – | – | – | – |
| CCN(CC)CCCC(C)Nc1c2ccc(Cl)cc2nc2ccc(OC)cc12 (stereo not shown) [Quinacrine, reference compound] | 17 µM | Yes | – | – | – | – | – | – | – | – | – | – | – | – | – | – |
| [H]/N=C1/SC(=Cc2ccco2)C(=O)N1c1nccs1 [XXXII, (E)-5-(furan-2-ylmethylene)-2-imino-3-(thiazol-2-yl)thiazolidin-4-one] | – | – | – | – | – | – | – | – | – | – | – | – | – | – | – | Blocking the replication of vaccinia virus in cells [8]: effective in blocking the replication of vaccinia virus in cells |
| COc1ccc(Nc2cc(C(F)(F)F)ccc2Cl)c(C(=O)O)c1 [XXXIV, 2-(2-chloro-5-(trifluoromethyl)phenylamino)-5-methoxybenzoic acid] | – | – | – | – | – | – | – | – | – | – | – | – | – | – | – | Blocking the replication of vaccinia virus in cells [8]: effective in blocking the replication of vaccinia virus in cells |
| O=C1CSC(=S)N1/N=C/c1ccc(Cl)c([N+](=O)[O-])c1 [XXXIX, (E)-3-(4-chloro-3-nitrobenzylideneamino)-2-thioxothiazolidin-4-one] | – | – | – | – | – | – | – | – | – | – | – | – | – | – | – | Blocking the replication of vaccinia virus in cells [8]: effective in blocking the replication of vaccinia virus in cells |
| CN1CCc2c(-c3cccs3)nc(OCc3ccccc3Br)c(C#N)c2C1 [XXXV, 3-(2-bromobenzyloxy)-6-methyl-1-(thiophen-2-yl)-5,6,7,8-tetrahydro-2,6-naphthyridine-4-carbonitrile] | – | – | – | – | – | – | – | – | – | – | – | – | – | – | – | Blocking the replication of vaccinia virus in cells [8]: effective in blocking the replication of vaccinia virus in cells |
